Laboratory results: article PMC2063346, “Cyclosporin A as a multidrug-resistant modulator in patients with renal cell carcinoma treated with teniposide” (British Journal of Cancer, 1997)

Tests used:
[1] = in vivo
Protocol: (§1) British Joumal of Cancer (1997) 75(5), 715-721 ? […] Sixteen patients initially received VM26 alone (200 mg m-2 day-' i.v.). […] For this reason, new approaches are highly recommended after a first-line treatment, usually interleukin 2 based (Yagoda et al, 1995). […] P-gp deter- mines reduced intracellular drug accumulation and/or altered intracellular drug compartmentation, preventing drugs from reaching the intracellular target site (Skovsgaard, 1978, Schuurhuis et al, 1989). […] Received 2 June 1996 Revised 2 October 1996 Accepted 17 October 1996 Correspondence to: M Boiocchi, Division of Experimental Oncology 1, Centro di Riferimento Oncologico, via Pedemontana Occidentale 12, 33081 Aviano (PN), Italy Although many chemosensitizers have been used successfully in vitro in MDR cell lines, their potential therapeutic role in the clinical setting remains an intriguing issue. […] This could determine alteration in the pharmacokinetics and pharmacodynamics of the cytotoxic agents (Lum et al, 1992; Wilson et al, 1995). […] The study was approved by the local ethics committee and informed consent was obtained from all patients. Treatment protocol The patients received the first course of VM26 (Vumon; Bristol Myers, Rome, Italy) at the dosage of 200 mg m-2 day-' i.v. every 3 weeks. The second cycle (same dosage) was administered in the event of response or stable disease, if no toxicity was documented. In the event of grade 4 toxicity the dose was reduced by 25%. […] The patients were clinically evaluated according to the usual phase II trials criteria (WHO), and blood tests were performed weekly. […] To determine the VM26 level, 5-ml blood samples were drawn from peripheral vein and collected in heparinized glass tubes before treatment at 0 h (i.e. immediately before the begin- ning of i.v. infusion of VM26) and at 1,6, 12, 18, 24,24.5,25,26, 28, 32, 36, 48 and 60h. Plasma samples, which were separated after centrifugation at 1000 g for 10 min, were kept frozen at - 20'C until analysis. Urine samples were collected before, during and after VM26 treatment. Each 12-h sample from well-stirred urine was stored and kept frozen at -20?C until analysis. […] These samples were frozen at -70?C until analysis. Drug assays The method used to determine VM26 in plasma samples was that described by Evans et al (1982). Briefly, 1 ml of plasma or urine was extracted with 8 ml of chloroform containing VP16 (100 gl of a 200-,ug ml solution) as internal standard. After 20-min shaking at +4?C, samples were centrifuged at 1500 g for 20 min at +4?C. The organic phase was dried under vacuum and then redissolved with 200 gl of methanol; 50 µl of this solution as injected into an LKB-Pharmacia (Cambridge, UK) high-performance liquid chro- matography (HPLC) system equipped with an absorbance detector set at 254 nm. Separation was achieved using an isocratic solvent system of water-acetonitrile-acetic acid (64:35:1) at a flow of 1 ml min-, using a 300 x 3.9-mm long ,uBondapak phenyl column (Waters, New York, NY, USA). Peak areas were quantitated with an LKB integrator. […] To calculate the concentrations of VM26, the internal standard method was adopted. […] Pharmacokinetic analyses To define the plasma concentration-time function and to estimate pharmacokinetic parameters of VM26 for each patient, a compart- mental model was adopted. Drug infusion and non-saturable elim- ination processes were considered zero-order and first-order processes respectively. Estimates of pharmacokinetic parameters [apparent volume of distribution (V); elimination half-life (t1,2p); systemic clearance (CI); maximum drug concentration (Cmax); and area under curve (AUC)] of VM26 and the numerical validation of the model were obtained by PCNONLIN 4.0, a non-linear regression program.

[2] = test system: metastatic renal cell carcinoma; assay: Treatment response, phase II (WHO criteria); format: in vivo, patients
Protocol: as §1

[3] = Total and renal clearance of VM26 (urine collection, seven patients); format: in vivo
Protocol: British Joumal of Cancer (1997) 75(5), 715-721 ? […] Sixteen patients initially received VM26 alone (200 mg m-2 day-' i.v.). […] For this reason, new approaches are highly recommended after a first-line treatment, usually interleukin 2 based (Yagoda et al, 1995). […] P-gp deter- mines reduced intracellular drug accumulation and/or altered intracellular drug compartmentation, preventing drugs from reaching the intracellular target site (Skovsgaard, 1978, Schuurhuis et al, 1989). […] Received 2 June 1996 Revised 2 October 1996 Accepted 17 October 1996 Correspondence to: M Boiocchi, Division of Experimental Oncology 1, Centro di Riferimento Oncologico, via Pedemontana Occidentale 12, 33081 Aviano (PN), Italy Although many chemosensitizers have been used successfully in vitro in MDR cell lines, their potential therapeutic role in the clinical setting remains an intriguing issue. […] The patients were clinically evaluated according to the usual phase II trials criteria (WHO), and blood tests were performed weekly. […] The organic phase was dried under vacuum and then redissolved with 200 gl of methanol; 50 µl of this solution as injected into an LKB-Pharmacia (Cambridge, UK) high-performance liquid chro- matography (HPLC) system equipped with an absorbance detector set at 254 nm. […] Peak areas were quantitated with an LKB integrator. […]

[4] = VM26 plasma pharmacokinetics alone and with CSA (HPLC, compartmental model); format: in vivo, patients
Protocol: as §1

[5] = nine patients after two courses of VM26 alone
[6] = VM26 alone, first cycle, 16 patients

- ANC/AUC ratio (nadir ANC standardized for AUC of VM26) [1]: 7.38 ± 5.51
- bilirubin (in the normal range) [1]: < 1.5 mg 100 ml-1
- cutaneous eruption, patients [1]: one patient
- cycles with significant vomiting, mucositis or constipation [1]: < 15 % of cycles
- grade 3 neutropenia, patients [1]: three
- hair loss, patients [1]: all patients
- nadir neutrophil count (ANC), median [1]: 1900 µL⁻¹
- nadir neutrophil count (ANC), range [1]: 200 to 6000 µL⁻¹
- fraction of total clearance resulting from renal clearance ([3]; VM26 alone): < 6%
- Decrease of total Cl of VM26 ([3]; VM26 plus CSA versus VM26 alone, seven patients, P<0.05): 21%
- AUC of VM26, median (range) [4, 6]: 290.3 (168.4-791.0) mg l-1 h
- Cl of VM26, median (range) [4, 6]: 0.62 (0.25-1.2) l h-1 m-2
- Cmax of VM26, median (range) [4, 6]: 10.9 (7.0-22.3) mg l-1
- V of VM26, median (range) [4, 6]: 5.5 (4.4-9.0) l m-2
- t1/2 of VM26, median (range) [4, 6]: 6.8(2.8-14.8) h
- variation in the paired AUC of VM26 ([4]; after CSA versus VM26 alone): 50%
- decrease of systemic clearance of VM26 ([4]; when CSA was added, P<0.01): 1.4 fold
SMILES: COc1cc([C@@H]2c3cc4c(cc3[C@@H](O[C@@H]3O[C@@H]5CO[C@@H](c6cccs6)O[C@H]5[C@H](O)[C@H]3O)[C@H]3COC(=O)[C@H]23)OCO4)cc(OC)c1O [VM26, teniposide]
- objective responses ([2]; VM26 alone 200 mg m-2 day-1 i.v., sixteen patients): No objective responses
- progressive disease, patients [2, 5]: six
- stable disease, patients [2, 5]: three
- Response (VM26) ([2]; patient 1, 2 cycles): SD (stable disease)
- Response (VM26) ([2]; patient 2, 2 cycles): PD (progressive disease)
- Response (VM26) ([2]; patient 3, 2 cycles): PD (progressive disease)
- Response (VM26) ([2]; patient 4, 2 cycles): PD (progressive disease)
- Response (VM26) ([2]; patient 5, 2 cycles): SD (stable disease)
- Response (VM26) ([2]; patient 6, 2 cycles): SD (stable disease)
- Response (VM26) ([2]; patient 7, 2 cycles): PD (progressive disease)
- Response (VM26) ([2]; patient 8, 2 cycles): PD (progressive disease)
- Response (VM26) ([2]; patient 9, 2 cycles): PD (progressive disease)
